Reference: US5310884A (Merck Frosst Canada, Inc., priority 1992, dated 1994)
Read-outs that look alike come from different tables or passages of the source. One block for each compound: values may come before it.

Experiments:
[1] = target: T1, LTD4 receptor (guinea-pig lung membranes) (Cavia porcellus, UniProt Q2NNR5); test: biochemical; settings: for effect of divalent cation on [3H]LTD4 specific binding: CaCl2 at concentrations above 30 mM, MgCl2 instead of CaCl2
T1 sequence (Q2NNR5 1-340): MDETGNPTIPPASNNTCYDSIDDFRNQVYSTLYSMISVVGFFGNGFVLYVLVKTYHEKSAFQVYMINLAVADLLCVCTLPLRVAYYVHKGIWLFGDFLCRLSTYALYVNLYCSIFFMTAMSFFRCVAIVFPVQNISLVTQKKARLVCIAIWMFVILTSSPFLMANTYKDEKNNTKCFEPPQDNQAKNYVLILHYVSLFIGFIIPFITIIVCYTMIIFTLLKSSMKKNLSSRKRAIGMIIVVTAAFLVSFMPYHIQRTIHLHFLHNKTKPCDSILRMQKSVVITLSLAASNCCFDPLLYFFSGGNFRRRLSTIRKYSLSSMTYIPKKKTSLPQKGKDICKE
Experimental: (§1) Guinea pigs (male; 350 g) were sacrificed by cervical dislocation and the lung tissues removed. All subsequent procedures were performed either on ice or at 4° C. Connective tissue, trachea, large blood vessels and major airways were dissected away and the remaining lung tissue (primarily parenchyma) was finely minced prior to homogenisation in 10 vol of 10 mM HEPES/KOH pH 7.4, containing 0.25 M sucrose, 2 mM EDTA, 2 mM phenylmethylsulphonyl fluoride, 10 μg/ml pepstatin, 10 μg/ml leupeptin and 10 μM E-64, using 5 s bursts of a polytron (Brinkman Instruments). The homogenate was subjected to differential centrifugation at 1000×g for 10 min, 10,000×g for 10 min and 100,000×g for 40 min. The resulting 100,000×g pellets were resuspended in 10 mM HEPES/KOH pH 7.4, containing 10% (w/v) sucrose, at a final protein concentration of 1-2 mg/ml. This tissue suspension was carefully layered over 10 mM HEPES/KOH pH 7.4 containing 40% (w/v) sucrose in a 3:2 (v/v) ratio. The discontinuous sucrose gradient was centrifuged at 83,000×g for 60 min. The membrane fraction located at the interface of the sucrose gradient layers was recovered, diluted 10-fold in 10 mM HEPES/KOH pH 7.4 and further centrifuged at 150,000×g for 40 min. The final membrane pellets were resuspended in 10 mM HEPES/KOH pH 7.4 at a protein concentration of 2-4 mg/ml and stored at […].
Competition experiments were analysed and IC50 values derived using the Kinetic, EBDA, Ligand, […] program from Biosoft (McPherson, 1985).
(§2) FIG. 4. […] Radiolabelled proteins were resolved by SDS-PAGE and visualized by autoradiography. […] In addition, photoaffinity labelled membranes were subjected to immunoprecipitation with RAGpAlb (Lane C) and non-immune rabbit serum (Lane D), as described in the Methods. The migration of molecular weight standards is indicated on the left. FIGS. 5(A)-5(C). […] Results are expressed as percentage of maximum specific binding as a function of CaCl2 concentration. […] Only the results for total binding are shown.
(§3) Results are expressed as percentage of maximum specific binding as a function of nucleotide concentration. […] Only the results for total binding are shown.
(§4) Results are expressed as percentage of maximum specific binding as a function of cation concentration. […] Only the results for total binding are shown.

[2] = target: T1, LTD4 receptor (guinea-pig lung membranes); settings: for effect of divalent cation on [125I]Azido-LTD4 specific binding: CaCl2 at concentrations above 30 mM, MgCl2 instead of CaCl2
Experimental: as §1
Filters were then washed with 16 ml of 10 mM HEPES/KOH, pH 7.4 containing 0.01% (w/v) bovine serum albumin, at 4° C.
as §2, §3, §4

[3] = target: T2, 45 kDa guinea-pig lung membrane protein (Cavia porcellus, UniProt Q2NNR5); test: [125I]Azido-LTD4 photoaffinity labelling of the 45 kDa guinea-pig lung membrane protein (SDS-PAGE, autoradiography, laser densitometry); format: binding; settings: for IC50: laser densitometry, leukotrienes and antagonists, read-out: IC50 for inhibition of photolabelling of the 45 kDa protein
T2 construct: Guinea pigs (male; from tissue; host or cells: guinea-pig lung (primarily parenchyma), sucrose-gradient membrane fraction
T2 sequence (Q2NNR5 1-340): T1 sequence (Q2NNR5 1-340)
Experimental: as §1
(§5) Samples were incubated for 60 min at room temperature. […] The residual samples were then transferred to 25 mm diameter cluster plate well for photolysis. The cluster plates were placed on aluminium blocks, pre-cooled to -20° C., and illuminated from above with a 40 W ultraviolet light source (Phillips, γmax =350 nm) at a distance of 10 cm for 2 min. The guinea-pig lung membranes were then recovered from 1 ml sample aliquots by centrifugation at 150,000×g for 15 min at 4° C. and solubilized in sodium dodecyl sulphate polyacrylamide gel electrophoresis (SDS-PAGE) sample buffer prior to resolution of the proteins by SDS-PAGE (Laemmli, 1970). Protein bands were visualized by Coomassie Blue staining while radiolabelled proteins were identified by autoradiography of dried gels and quantified by laser densitometry (Molecular Dynamics, ImageQuant).
as §2, §3, §4

[4] = tested on: 45 kDa guinea-pig lung membrane protein; test: as above; format: binding; settings: for effect of divalent cation on photolabelling of the 45 kDa protein: CaCl2, same concentration range, MgCl2 instead of CaCl2
Experimental: as §1, §5, §2, §3, §4

[5] = target: T1, LTD4 receptor (guinea-pig lung membranes); test: Rates of association and dissociation of radioligand binding to guinea-pig lung membranes; parameters: Guinea pigs (male; from tissue; host or cells: guinea-pig lung (primarily parenchyma), sucrose-gradient membrane fraction; settings: identical experimental conditions; data not shown
Experimental: FIG. 3. […] Aliquots (500 μl) were removed and filtered at the required time intervals.

[6] = target: T1, LTD4 receptor (guinea-pig lung membranes); test: Saturation binding to guinea-pig lung membranes, Scatchard plot analysis; parameters: Guinea pigs (male; 350 g) were sacrificed by cervical dislocation and the lung tissues removed; from tissue; host or cells: guinea-pig lung (primarily parenchyma), sucrose-gradient membrane fraction; settings: Scatchard, single site

concentration producing inhibition of [3H]LTD4 specific binding ([1]; weak competing ligand): > 1 µM | concentration producing inhibition of [125I]Azido-LTD4 specific binding ([2]; weak competing ligand): > 1 µM
SMILES: CC(C)c1ccc2c(c1)c(SC(C)(C)C)c(CC(C)(C)C(=O)O)n2Cc1ccc(Cl)cc1 [MK-886]
competition for radiolabelling of the 45 kDa protein ([3]; MK-886, 0-10 μM): only able to compete for the selective radiolabelling of the 45 kDa protein at similarly high ligand concentrations

IC50 [1]: 0.002 µM | IC50 ([2]; read-out: IC50 for competition with [125I]Azido-LTD4 specific binding, leukotrienes and antagonists, LTC4 with 50 mM serine-borate): 0.003 µM | IC50 [3]: 0.001 µM
SMILES: CN(C)C(=O)CCSC(SCCC(=O)O)c1cccc(/C=C/c2ccc3ccc(Cl)cc3n2)c1 (centres unmarked) [MK-571]

potency relative to LTD4 (fold less potent), [3H]LTD4 specific binding ([1]; vs LTD4): approximately 10000 fold | potency relative to LTD4 (fold less potent), [125I]Azido-LTD4 specific binding ([2]; vs LTD4): approximately 10000 fold | concentration at which it competes for radiolabelling of the 45 kDa protein ([3]; LTB4): 10 µM
SMILES: CCCCC/C=C\C[C@@H](O)/C=C/C=C/C=C\[C@@H](O)CCCC(=O)O [LTB4]

More lines, now with the values behind:

SMILES: Nc1nc2c(ncn2[C@@H]2O[C@H](COP(=O)(O)OP(=O)(O)OP(O)(O)=S)[C@@H](O)[C@H]2O)c(=O)[nH]1 [GTPγS]
inhibition at 1000 µM ([1]; read-out: inhibition of [3H]LTD4 specific binding): 60% | inhibition of [125I]Azido-LTD4 specific binding ([2]; 10 μM GTPγS): complete inhibition | potency relative to ATPγS in inhibiting photolabelling of the 45 kDa protein (fold more potent) ([4]; GTPγS vs ATPγS): 100 fold | IC50 ([4]; nucleotide analogue, read-out: IC50 for inhibition of photolabelling of the 45 kDa protein): 1 µM

SMILES: [Cl-].[Na+] [NaCl]
IC50 ([1]; read-out: IC50 for inhibition of [3H]LTD4 specific binding, monovalent cation): ~30000 µM | IC50 ([2]; read-out: IC50 for inhibition of [125I]Azido-LTD4 specific binding, monovalent cation): ~30000 µM | IC50 ([4]; monovalent cation, read-out: IC50 for inhibition of radiolabelling of the 45 kDa protein): ~30000 µM

SMILES: CCCCC/C=C\C\C=C/C=C/C=C/[C@@H](SC[C@H](NC(=O)CCCCCNC(=O)c1cc(I)c(N=[N+]=[N-])cc1O)C(=O)NCC(=O)O)[C@@H](O)CCCC(=O)O [^127 lAzido-LTD4]
Ki [1]: 0.0017 µM | Ki relative to LTD4 (fold higher) ([1]; vs Ki of LTD4, same assay): 5 fold

SMILES: [Cl-].[K+] [KCl]
inhibition of [3H]LTD4 specific binding ([1]; KCl, 0-100 mM): did not significantly inhibit | inhibition of [125I]Azido-LTD4 specific binding ([2]; KCl, 0-100 mM): did not significantly inhibit | inhibition of photolabelling of the 45 kDa protein ([4]; KCl, 0-100 mM): did not significantly inhibit

SMILES: COc1cc(C(=O)NS(=O)(=O)c2ccccc2C)ccc1Cc1cn(C)c2ccc(NC(=O)OC3CCCC3)cc12 [lCl 204,219]
IC50 [3]: 0.0003 µM

SMILES: [Ca+2].[Cl-].[Cl-] [CaCl2]
concentration for optimal [3H]LTD4 specific binding [1]: 3 to 30 mM | effect of divalent cation on [3H]LTD4 specific binding [1]: higher concentrations proving inhibitory | concentration for optimal [125I]Azido-LTD4 specific binding [2]: 3 to 30 mM | effect of divalent cation on [125I]Azido-LTD4 specific binding [2]: higher concentrations proving inhibitory | concentration for optimal radiolabelling of the 45 kDa protein [4]: 3 to 30 mM | effect of divalent cation on photolabelling of the 45 kDa protein [4]: enhanced

SMILES: CCCCC/C=C\C\C=C/C=C/C=C/[C@@H](SCC(N)C(=O)NCC(=O)O)[C@@H](O)CCCC(=O)O (some centres unmarked) [[^3 H]LTD4]
association and dissociation profile compared with [125I]Azido-LTD4 [5]: identical | maximum number of binding sites (Bmax) [6]: 2000 fmol/mg protein

SMILES: Nc1ncnc2c1ncn2[C@@H]1O[C@H](COP(=O)(O)OP(=O)(O)OP(O)(O)=S)[C@@H](O)[C@H]1O [ATPγS]
effect of nucleotide analogue on [3H]LTD4 specific binding ([1]; ATPγS): no detectable effect | potency relative to GTPγS in inhibiting [125I]Azido-LTD4 specific binding (fold less potent) ([2]; ATPγS vs GTPγS): 100 fold

SMILES: [Cl-].[Cl-].[Mg+2] [MgCl2]
effect of divalent cation on [3H]LTD4 specific binding [1]: Identical results | effect of divalent cation on [125I]Azido-LTD4 specific binding [2]: Identical results | effect of divalent cation on photolabelling of the 45 kDa protein [4]: Identical results
